Non-standard residues stand in square brackets, D forms with d. Residues, ends and D or L forms follow the SMILES beside them.
Experiments:
[1] = Weight gain in chickens (cockerels); format: in vivo, P-46 breed
Experimental: The effect of the peptide on weight gain in chickens was examined. Tests were conducted on chickens of egg oriented productivity, "P-46" breed. 24 hour old cockerels were divided in 5 groups, 13 cockerels in each--one control group and 4 test groups.
The birds were given a full diet till they reached the age of 10 weeks. 100% of birds in both the control and test groups survived.
After 10 weeks, the cockerels were killed and examined.
Quality of the cockerel meat was tested on an organoleptic basis.

[2] = Weight gain in pigs; format: in vivo
Experimental: The purpose of the first stage of testing was to determine the optimal dose of the peptide necessary to achieve the desired weight gain and the most beneficial manner of administering the peptide. The first stage of testing was conducted over a period of 100 days.
The pigs were divided into seven groups of ten animals each. The animals were all aged 4-5 months, and weighed about the same. There was one control group and six test groups. All the groups were given an ordinary diet.
Test groups 2, 3, and 4 were administered the peptide (1.0, 5.0, 10.0 μg kg/body weight) with feed, for 20 days each month with a 10 day break. Test groups 5, 6, and 7 were administered the peptide by injections of 0.01% water solutions for five days each month with a 25 day break (0.1, 0.5 and 1.0 μg per body weight).
Physiological examinations and biochemical tests were carried out during the experiment. The pigs were weighed on the 30th, 65th and 100th days of the experiment. […] Administration of 1 μg per 1 kg of body weight by intramuscular injections achieved a weight gain 18% higher than the control group (group 6).
The second stage of the experiment lasted 95 days, after which the animals were killed. The second stage of the experiment was carried out only with groups three and six, in order to determine which method of administration of the peptide produced the best results. […]

[3] = Weight gain in young bulls; format: in vivo; conditions: during the experiment
Experimental: There were 7 groups of animals having approximately the same weight, with 12 young bulls in each group. The age of the animals was 2 months. There were 6 test groups and one control. The test animals were administered Sedatin with water before they were fed or as intramuscular injections in the amounts shown in Table 12. All animals received the same diet and were kept in the same conditions. Two animals in the control group fell ill during the experiment, and were replaced by analogs.
Two groups, one control and one test, were chosen for the second stage of the experiment. The test group was administered the peptide mixed with feed, in the amount of 10 μg per 1 kg of body weight. The control group was not administered any of the peptide. The data was biometrically processed.

Compound: C[C@@H](NC(=O)[C@H](Cc1ccc(O)cc1)NC(=O)[C@@H](N)CCCNC(=N)N)C(=O)N[C@@H](Cc1ccccc1)C(=O)NCC(=O)O [H-Arg-Tyr-D-Ala-Phe-Gly-OH] (H-RY[dA]FG-OH)
- quality of cockerel meat (colour, smell, consistency, taste), organoleptic ([1]; all groups): the same as in the control group
- birds survived ([1]; test groups, to age of 10 weeks): 100%
- biochemical and physicochemical tests [2]: no deviation from the control group
- quality characteristics (pathological changes, decrease of fat layer, etc.) [2]: No changes were observed
- temperature, pulse and breath-rate [3]: no deviation from the control group
- solubility in alcohol (alcohol): slightly soluble
- solubility in chloroform (chloroform): practically insoluble
- solubility in water (water): soluble

— patent US6248716A, “Peptide, a method for its preparation and a pharmaceutical composition containing the peptide” (priority 1999, dated 2001)
